Measured values: patent US9657351B2, “MRNA-based gene expression for personalizing patient cancer therapy with an MDM2 antagonist” (Hoffmann-La Roche Inc., priority 2013, dated 2017)
“Also recorded” adds a separate entry of the source.

Assays:
[1] = tested on: CFPAC-1; assay: COMPOUND A In Vitro Assay; assay type: cell-based; details: Homo sapiens, Pancreas, TP53 Mutant
Method in brief: (§1)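 Within a large bank of human cancer lines, response to MDM2 antagonism by COMPOUND A was scored as IC50 from high-throughput assays. Sensitivity and resistance thresholds were IC50<=1 and IC50>=10, respectively.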

[2] = tested on: HEL; assay: COMPOUND A In Vitro Assay; assay type: cell-based; details: Homo sapiens, Lymphocyte, peripheral blood, TP53 Mutant
Method in brief: as §1

[3] = tested on: LNCaP clone FGC; assay: COMPOUND A In Vitro Assay; assay type: cell-based; details: Homo sapiens
Method in brief: as §1

[4] = tested on: NCI-H2171; assay: COMPOUND A In Vitro Assay; assay type: cell-based; details: Homo sapiens, Lung, TP53 Mutant
Method in brief: as §1

[5] = tested on: Raji; assay: COMPOUND A In Vitro Assay; assay type: cell-based; details: Homo sapiens, Lymphocyte B, TP53 Mutant
Method in brief: as §1

[6] = tested on: patients with relapsed/refractory leukemia (AML); assay: NO21279 Phase 1 leukemia trial, clinical response (CR, MLFS, HI, PD); assay type: in vivo, human
Experimental: The performance of the MDM2 antagonist predictive mRNA response signature is tested in the clinical setting with specimens from the NO21279 leukemia trial (FIG. 1). 28 AML patients treated at the MTD are enrolled and completed pretreatment and C1D10 (cycle 1, day 10) sampling. […] The clinical endpoint in NO21279 was divided into 4 categories: Complete Response (CR), Morphologic Leukemia-Free State (MLFS), Hematologic Improvement (HI), and Progressive Disease (PD). Blood leukemia samples and bone marrow biopsy samples were collected at baseline screening, after a single dose (cycle 1 day 2, C1D2) and on last day of dosing (cycle 1, day 10, C1D10) and isolated via MACS® separation^11. The early pharmacodynamic effect of MDM2 antagonism in blood leukemia samples was assessed by measuring MDM2 RT PCR change between baseline and C1D10. Global gene expression profiles were generated for the peripheral blood leukemia cells and bone marrow biopsy samples obtained at baseline, C1D2 and C1D10.
(§2) In the NO21279 Phase 1 clinical trial, patients with relapsed/refractory leukemia are treated with ascending doses of COMPOUND A. Specimens from subset of patients treated at the MTD (1500 mg BID×10 days) are evaluated as a part of the current gene expression study. Leukemia samples are collected at baseline, cycle 1 day 2 (C1D2) and cycle 1, day 10 (C1D10) and isolated via MACs separation.
as §2, with “RG7112.” for “COMPOUND A.”
Clinical responses are evaluated and are divided into 4 categories: Complete Response (CR), Morphologic Leukemia-Free State (MLFS), Hematologic Improvement (HI), and Progressive Disease (PD). […] In addition to assessments of baseline samples, treatment samples are also evaluated (Cycle 1, Day 10).

[7] = tested on: BBC3 mRNA; assay: NO21279 blood cell gene expression on treatment, Affymetrix U133 Plus 2.0 microarray; assay type: in vivo, human; details: blood cell specimens, C1D10; IQR 1.13-1.99
Experimental: (§3) MDM2 mRNA concentrations were assessed at Roche Molecular Systems by quantitative real-time PCR with 50 ng total RNA from MACs isolated leukemia cells from blood. TaqMan (Invitrogen, Carlsbad, Calif., USA) probes were designed to detect MDM2 mRNA and the reference mRNA, beta-glucuronidase, simultaneously using two different fluorescent reporters. Gene expression profiles were generated using Affymetrix U133 Plus 2.0 microarrays. Probset ID's for the each of the four genes on said U133 Plus 2.0 microarray are: 209375_s_at (for XPC); 205386_s_at and 211832_s_at (MDM2); 211692_s_at (BBC3); 207039_at and 211156_at (CDKN2A). The “mRNA expression level” for one of the 4 genes according to the present invention is the accumulation of all counts falling into the range of exons of a gene (e.g. MDM2). […] The predictive patient signature score according to the present invention is then calculated using the following equation: patient signature score=GMDM2+GXPC+GBBC3−GCDKN2A. G in the formula stands for log 2 transformed mRNA expression levels as obtained from patient samples, for example blood leukemia or bone marrow biopsy samples. For example, for the patient data reported in Table 9 (Example 5), G is log 2 of the mRNA probeset expression of the relevant gene as measured with Affymetrix U133 Plus 2.0 microarrays.
(§4) Each intensity value is then log 2 transformed.

[8] = tested on: CDKN2A mRNA; assay: as above; assay type: in vivo, human; details: C1D10; IQR 0.09-0.38
Experimental: as §3, §4

[9] = tested on: MDM2 mRNA; assay: as above; assay type: in vivo, human; details: blood cell specimens, C1D10; IQR 1.71-5.00
Experimental: as §3, §4

[10] = tested on: MDM2 mRNA; assay: NP21280 solid tumor trial, tumor biopsy biomarker (MDM2 mRNA); assay type: in vivo, human; details: at C1D10, p=1.03×10−5
[11] = of 28 AML patients treated at the MTD (1500 mg BID×10 days)

With `CCOc1cc(C(C)(C)C)ccc1C1=N[C@@](C)(c2ccc(Cl)cc2)[C@@](C)(c2ccc(Cl)cc2)N1C(=O)N1CCN(CCCS(C)(=O)=O)CC1` [COMPOUND A] the IC50 [1] was 5.7 µM, the IC50 [2] was 17 µM and the IC50 ([3]; LNCaP clone FGC cells) was 0.2 µM. It also gave an IC50 ([3]; LNCaP clone FGC, tissue NA, TP53 Wild type) of 0.17 µM, an IC50 [4] of 11 µM and an IC50 [5] of 3 µM. The “Response, number of patients with CR” value ([6]; all 28 patients, NO21279) was 3CR,, the “Response, number of patients with HI” value ([6]; all 28 patients, NO21279) was 6 HI, and the “Response, number of patients with MLFS” value ([6]; all 28 patients, NO21279) was 4 MLFS,. The “Response, number of patients with PD” value ([6]; all 28 patients, NO21279) was 15 PD, the Response ([6]; individual AML patients (no. 1-28), NO21279, MTD 1500 mg BID×10 days, listed as RG7112) was “CR (Complete Response (CR)); also recorded: MLFS (Morphologic Leukemia-Free State (MLFS)); also recorded: HI (Hematologic Improvement (HI)); also recorded: PD (Progressive Disease (PD))” and the “clinical response: number of patients with Complete Response (CR)” value [6, 11] was 3. The “clinical response: number of patients with Hematologic Improvement (HI)” value [6, 11] was 6, the “clinical response: number of patients with Morphologic Leukemia-Free State (MLFS)” value [6, 11] was 4 and the “clinical response: number of patients with Progressive Disease (PD)” value [6, 11] was 15. For the same molecule, the “median BBC3 mRNA expression over baseline” value [7] was 1.45 times, the “median CDKN2A mRNA expression decreased over baseline” value [8] was 0.26 times and the “median MDM2 mRNA expression over baseline” value [9] was 2.37 times. For the same molecule, the “MDM2 mRNA expression change from baseline” value [10] was “significantly increase”.
